US7351837B1, “Thermally cleavable surfactants without deprotonation” (Sandia Corporation, priority 2004, dated 2008)

How the values were obtained:
Type in all cases: physicochemical
[1] = critical micelle concentration by dynamic surface tension (maximum bubble pressure method); conditions: aqueous solution
Description: The dynamic surface tension measurements were conducted using a SENSADYNE® QC3000 dynamic surface tensiometer (available from the SENSADYNE® Instruments Division of the Chem-Dyne Research Corporation, Mesa, Ariz.) that utilizes the maximum bubble pressure method. The fundamental operating principles and theoretical considerations of this method are explained in detail elsewhere, and a brief summary only is given here. Two glass probes with different orifice diameters (0.5 and 4.0 mm) were submerged in an aqueous surfactant solution and nitrogen was bubbled through the samples. Dry nitrogen was used as the bubble source gas and was delivered to the instrument at 50 psi. The instrument was operated at a bubble frequency of 0.5 Hz to approximate equilibrium surface tension values for each sample. The differential pressure signal generated by bubble formation is related to the interfacial surface tension of the liquid and gas. Surface tension calibration was carried out by measuring the surface tension of deionized water and ethanol and comparing to known literature values. Solution temperature was monitored with a calibrated thermistor (± 0.1° C.) attached to the orifice probes. Instrumental calibration was conducted for every change in experimental conditions and after prolonged periods of instrumental quiescence. All experiments were conducted at 25.0±0.2° C. unless otherwise noted. […]

[2] = retro-DA degradation via surface tension; conditions: 10 mM aqueous solution
Description: The surfactants of the invention undergo the retro-DA reaction after exposure to elevated temperatures. […] Data were recorded for all experiments via a computer interface using the […]3000 version 5.3 software. […] Additional measurements to determine the effect of temperature on the rates of surfactant dissociation and loss of surface active properties were conducted on 10 mM solutions of surfactant 3. The data shown in FIG. 3 clearly indicate that the temperature at which the samples are elevated to has a dramatic impact on the rate at which the surface active properties are lost in these solutions. […] At the lowest temperature monitored, 55° C., it takes over 30 hours of exposure to eliminate surface activity. The data has been fit with a logistic 4-parameter algorithm using SIGMAPLOT® (available from Systat Software, Inc., Richmond, Calif.). […] The effective control of the surface active properties of the system is envisioned to be accomplished by manipulating one or any combination of these parameters. It should also be noted that all of the surface tension measurements of the cleaved samples were taken after the samples had cooled to ambient conditions, and are convincing evidence that the dissociation accompanying the retro DA is irreversible in micelles.

[3] = retro-DA degradation via 1H NMR; conditions: 65° C., 10 mM aqueous sample, isothermal
From the text: Percent degradation was tracked by recording the decrease in the integral value for the bridge head proton of the DA adduct located at 5.02 ppm. […] It is important to note that the percent degradation of surfactant 5 over various temperatures is not necessarily linear. This is a result of the Keq for the reversible DA reaction with DA adduct formation/stability dominating at lower temperatures.

CCCCCCCCCCCCC12C=CC(O1)C1C(=O)N(c3ccc(S(=O)(=O)[O-])cc3)C(=O)C12.[Na+] (stereo not drawn) [surfactant 3, exo-4-Dodecyl-7-oxabicyclo[2.2.1]hept-5-ene-2,3-dicarboxy-N-(4-sodiumsulfophenyl)imide]
cmc by dynamic surface tension measurements ([1]; 25.0±0.2° C., bubble frequency 0.5 Hz): 5.1 mM | second inflection point of surface tension vs concentration (micelles begin to form) ([1]; FIG. 2): ~5 mM | time of exposure to eliminate surface activity ([2]; 55° C.): over 30 hours | time of exposure to loss of all surface activity (surface tension is that of water) ([2]; 95° C.): ≤ 1 h | time of heating to complete degradation (1H NMR) [3]: about 10 hours
